Experimental data published in the NIST ThermoML archive (doi:10.1016/j.fluid.2015.11.037).
± gives the expanded uncertainty stated by the source. Each block holds one compound with its values, some of them ahead of it.

Key:
[1] = activity coefficient (dimensionless); of the first substance listed, at infinite dilution; xn = mol fraction of the nth substance listed; conditions: Liquid, x1 = 0
[2] = Liquid, Ebulliometric method (Recirculating still)
[3] = 333.15 K, 100 kPa, Rayleigh distillation
[4] = 303.15 K, 100 kPa, Rayleigh distillation
[5] = 313.15 K, 100 kPa, Rayleigh distillation
[6] = 323.15 K, 100 kPa, Rayleigh distillation
[7] = 293.15 K, 46.85 kPa, comparative ebulliometry
[8] = 303.15 K, 69.6 kPa, comparative ebulliometry
[9] = 311.15 K, 93.62 kPa, comparative ebulliometry

SMILES: CCCCO [butan-1-ol] + ClCCl
activity coefficient ([1]; 293.15 K, 100 kPa, differential distillation): 7.68 ± 0.65 | activity coefficient ([1]; 303.15 K, 100 kPa, differential distillation): 6.18 ± 0.51 | activity coefficient ([1]; 311.15 K, 100 kPa, differential distillation): 5.43 ± 0.57

SMILES: ClCCl [dichloromethane] + CCCCO
activity coefficient ([1]; 283.15 K, 100 kPa, inert gas stripping): 1.85 ± 0.1 | activity coefficient ([1]; 293.15 K, 100 kPa, inert gas stripping): 1.86 ± 0.11 | activity coefficient ([1]; 303.15 K, 100 kPa, inert gas stripping): 1.86 ± 0.11 | activity coefficient ([1]; 313.15 K, 100 kPa, inert gas stripping): 1.86 ± 0.11 | activity coefficient ([1]; 323.15 K, 100 kPa, inert gas stripping): 1.83 ± 0.1 | activity coefficient ([1]; 333.15 K, 100 kPa, inert gas stripping): 1.76 ± 0.1

SMILES: ClCCl [dichloromethane] + CCO
activity coefficient [1, 4]: 2.29 ± 0.18 | activity coefficient [1, 5]: 2.3 ± 0.18 | activity coefficient [1, 6]: 2.29 ± 0.18 | activity coefficient [1, 3]: 2.27 ± 0.18 | activity coefficient ([1]; 343.15 K, 100 kPa, Rayleigh distillation): 2.18 ± 0.25

SMILES: ClCCl [dichloromethane] + CO
activity coefficient ([1]; 293.15 K, 100 kPa, Rayleigh distillation): 2.84 ± 0.24 | activity coefficient [1, 4]: 2.87 ± 0.23 | activity coefficient [1, 5]: 2.87 ± 0.23 | activity coefficient [1, 6]: 2.83 ± 0.23 | activity coefficient [1, 3]: 2.81 ± 0.22

SMILES: CO [methanol] + ClCCl
activity coefficient [1, 7]: 13.4 ± 1.3 | activity coefficient [1, 8]: 11.6 ± 1.1 | activity coefficient [1, 9]: 9.86 ± 0.89

SMILES: CCCO [propan-1-ol] + ClCCl
activity coefficient [1, 7]: 8.38 ± 0.7 | activity coefficient [1, 8]: 6.99 ± 0.61 | activity coefficient [1, 9]: 5.98 ± 0.51

Other lines, results leading:

vapor or sublimation pressure ([2]; 285.89 K): 34.66 ± 0.065 kPa | vapor or sublimation pressure ([2]; 287.58 K): 37.33 ± 0.068 kPa | vapor or sublimation pressure ([2]; 289.94 K): 41.33 ± 0.073 kPa | vapor or sublimation pressure ([2]; 292.12 K): 45.33 ± 0.078 kPa | vapor or sublimation pressure ([2]; 294.15 K): 49.33 ± 0.083 kPa | vapor or sublimation pressure ([2]; 296.05 K): 53.33 ± 0.09 kPa | vapor or sublimation pressure ([2]; 298.41 K): 58.66 ± 0.095 kPa | vapor or sublimation pressure ([2]; 300.61 K): 63.99 ± 0.1 kPa | vapor or sublimation pressure ([2]; 302.67 K): 69.33 ± 0.11 kPa | vapor or sublimation pressure ([2]; 304.61 K): 74.66 ± 0.12 kPa | vapor or sublimation pressure ([2]; 306.43 K): 79.99 ± 0.12 kPa | vapor or sublimation pressure ([2]; 308.17 K): 85.33 ± 0.13 kPa | vapor or sublimation pressure ([2]; 309.82 K): 90.66 ± 0.13 kPa | vapor or sublimation pressure ([2]; 311.39 K): 95.99 ± 0.14 kPa
SMILES: ClCCl [dichloromethane]

activity coefficient ([1]; 283.15 K, 100 kPa, Inert gas stripping): 1.99 ± 0.12 | activity coefficient ([1]; 293.15 K, 100 kPa, Inert gas stripping): 2 ± 0.16 | activity coefficient ([1]; 303.15 K, 100 kPa, Inert gas stripping): 2.02 ± 0.16 | activity coefficient ([1]; 313.15 K, 100 kPa, Inert gas stripping): 2.05 ± 0.16 | activity coefficient ([1]; 323.15 K, 100 kPa, Inert gas stripping): 2.04 ± 0.16 | activity coefficient ([1]; 333.15 K, 100 kPa, Inert gas stripping): 2.02 ± 0.16 | activity coefficient [1, 3]: 2.06 ± 0.16
SMILES: ClCCl [dichloromethane] + CCCO

activity coefficient [1, 7]: 9.56 ± 0.78 | activity coefficient [1, 8]: 7.98 ± 0.65 | activity coefficient [1, 9]: 7.09 ± 0.58
SMILES: CCO [ethanol] + ClCCl
